In ChEMBL document CHEMBL1150901, “Enhancement of NO production in activated macrophages in vivo by an antimalarial crude drug, Dichroa febrifuga” (J Nat Prod, 1998) one finds Activity and viability data, which are given here for two compounds.

Data set [1] deals with Macrophage. Description: […] of LPS-induced NO production in BCG-treated ICR mouse macrophages at 1 mg/kg/day, po administered for 3 days before BCG immunization measured after 24 hrs of LPS challenge by Griess reagent method. The format is functional. Details: scale not given: the % may be the effect or the level left. (In general: Nitrite, measured by Griess reagent, commonly stands in for NO production.)

Data set [2] can be described thus: Cytotoxicity against ICR mouse macrophages assessed as cell viability at 1 mg/kg/day after 72 hrs by MTT assay. Format: organism-based, Macrophage. Conditions: read-out: Activity. On the technique in general: Tetrazolium assays rely on reduction of a dye to a coloured formazan, in cell work by metabolically active cells.
Data set [3] can be described thus: Activation of LPS-induced NO production in BCG-treated ICR mouse macrophages at 1 mg/kg/day, po administered for 3 days before BCG immunization measured after 72 hrs of LPS challenge by Griess reagent method. The format is functional, organism-based. As to conditions: Macrophage.
For data set [4], the system named is Macrophage. Description: Activation of NO production in BCG-treated ICR mouse macrophages at 1 mg/kg/day, po administered for 3 days before BCG immunization measured after 72 hrs of LPS challenge by Griess reagent method. Format: functional, organism-based.
Data set [5] can be described thus: Cytotoxicity against LPS-stimulated ICR mouse macrophages assessed as cell viability at 1 mg/kg/day after 72 hrs of LPS challenge by MTT assay. Format: organism-based, Macrophage. As to conditions: read-out: Activity.
Data set [6] concerns Macrophage. Description: Increase in LPS-induced NO production in ICR mouse at 1 mg/kg/day, po 0 to 2 days administered after BCG immunization measured after 24 hrs of LPS challenge by Griess reagent method. The format is functional, organism-based.
Data set [7] is described as follows: Activation of LPS-induced NO production in BCG-treated ICR mouse macrophages at 50 to 1000 mg/kg/day, po administered for 3 days before BCG immunization measured after 24 hrs of LPS challenge by Griess reagent method. Format: functional, organism-based. As to conditions: Macrophage.
In data set [8] the test system is Mus musculus. Description: Antiinflammatory activity against po dosed ICR mouse assessed as number of peritoneal exudate cells. The format is functional.
Data set [9] relates to Macrophage. Kind of data set: Increase in LPS-induced NO production in ICR mouse at 1 mg/kg/day, po 0 to 2 days administered before BCG immunization measured after 24 hrs of LPS challenge by Griess reagent method. The format is functional, organism-based.
The nature of data set [10]: Activation of LPS-induced NO production in BCG-treated ICR mouse macrophages at 5 mg/kg/day, po administered for 3 days before BCG immunization measured after 24 hrs of LPS challenge by Griess reagent method. Conditions: Macrophage. Format: functional, organism-based.
Data set [11] deals with Mus musculus. Kind of data set: Toxicity in ICR mouse assessed as occurrence of diarrhea at 5 mg/kg/day, po. The format is organism-based. Details: route oral. Conditions: in vivo.

Activity calls are given as the source filed them. The rule behind the calls is not given here.

As for `C[C@@H]1CC[C@H]2[C@@H](C)C(=O)O[C@@H]3O[C@@]4(C)CC[C@@H]1[C@]32OO4` [ARTEMISININ], in [1], the Activity worked out at 23%.

Consider `O=C(C[C@@H]1NCCC[C@H]1O)Cn1cnc2ccccc2c1=O` [FEBRIFUGINE], for which the viability at 72 h was over 90% in [2] and 10% in [5]. Further, the result in [3], in [6] and in data set [9] was Active. Also, the result in data set [4] and in data set [10] was inactive. The figures for the Activity result in data set [7], in data set [8] and in data set [11] were “Dose-dependent effect”, 378000000 and “Not Active”, respectively.
